The molecules below were run against T1, hGluR1 flip (Homo sapiens, UniProt P42261) (assay: AMPA receptor function-enhancing activity using calcium influx as index). Conditions: test compound 30 μM with 3 mM glutamic acid; CHO-K1/GluR1 flip/stargazin-expressing cells; 100% = 3 mM glutamic acid + 300 μM cyclothiazide, 0% = 3 mM glutamic acid alone.
T1 construct: expressed in transfected cells; host or cells: CHO-K1
Assay type: cell-based
Description: Experimental Example 1 Measurement Method of AMPA Receptor Function-Enhancing Activity of Compound Using Calcium Influx as Index
(1) Construction of Expression Gene
Human GluR^1 flip cDNA was amplified by PCR method using forward primer […] (SEQ ID NO: 1) and reverse primer […] (SEQ ID NO: 2) artificially synthesized using human brain-derived cDNA (BD Bioscience) as a template. The amplified product was digested with restriction enzymes EcoRI, NotI (TAKARA SHUZO CO. LTD.) and incorporated into the same site of pcDNA3.1 (+) (Invitrogen) to construct pcDNA3.1(+)/human GluR1 flip gene. Human stargazin cDNA was amplified by PCR method using forward primer […] (SEQ ID NO: 3) and reverse primer […] (SEQ ID NO: 4) artificially synthesized using human hippocampus cDNA as a template. The amplified product was digested with restriction enzymes XhoI, BamHI (TAKARA SHUZO CO. LTD.) and incorporated into the same site of pcDNA3.1(−) (Invitrogen) to construct pcDNA3.1 Zeo(−)/human stargazing gene.
(2) Construction of GluR1 Flip/Stargazin Expressing Cell
CHO-K1 cells passaged in a culture medium (Ham's F12 medium (Invitrogen) added with 10% inactivated fetal bovine serum (Morgate) and penicillin, streptomycin (Invitrogen)) were detached using 0.05% trypsin and 0.53 mM EDTA (Invitrogen) diluted with D-PBS(−). The detached cells were suspended in a culture medium, and recovered by centrifugation at 1,000 rpm. The recovered cells were re-suspended in D-PBS(−) and added into 0.4 cm electroporation cuvette (BioRad). pcDNA3.1(+)/human GluR1 flip gene (5 μg) and pcDNA3.1 Zeo(−)/human stargazin gene (15 μg) were added, and introduced into CHO-K1 cells under the conditions of 950 μFd, […] and using Gene Pulser II (BioRad). The introduced cells were cultured overnight in a culture medium. The next day, using a selection medium (culture medium added with zeocin (Invitrogen) at 250 μg/mL), the cells were plated in a 96 well plate at 250 cells/well. The clones showing drug resistance were selected, and GluR1 flip/stargazin expression clones were selected by an assay method shown below using calcium influx as an index.
(3) Measurement Method of AMPA Receptor Function-Enhancing Activity of Compound, Using Calcium Influx as an Index
CHO-K1/GluR1 flip/stargazin-expressing cells were plated on a 384 well black bottom transparent plate, and cultured for 2 days in a CO2 incubator (SANYO ELECTRIC Co. Ltd.) at 37° C. The medium of the cell plate was removed. A calcium indicator (Calcium5 Assay Kit, Molecular Devices) was diluted with an assay buffer (HESS (Thermo Fisher Scientific), 0.1% BSA (Merck Millipoer) and 10 mM HEPES (Thermo Fisher Scientific)), and 1.25 mM probenecid (Dojindo Laboratories) was added thereto. The mixture prepared above was added at 30 μL/well (100 μL/well in case of 96 wells) to the well, and the well was left standing in 37° C., CO2 incubator for 1 hr. The cell plate was set in CellLux (PerkinElmer), a mixture (15 μL) (50 μL/well in case of 96 wells) of 9 mM glutamic acid (final concentration 3 mM) diluted with an assay buffer and a test compound (test compound concentration 30 μM) was added thereto, and variation in the amount of fluorescence was measured for 3 min. The variation of fluorescence level of a well added with final concentration 3 mM of glutamic acid and 300 μM cyclothiazide (TOCRIS) was defined as 100%, the variation of fluorescence level of a well added with final concentration 3 mM of glutamic acid alone was defined as 0%, and the activity of the compound was calculated by the following formula. activity (%)=(X−C)/(T−C)×100 • T: variation of fluorescence level of well added with final concentration 3 mM of glutamic acid and 300 μM cyclothiazide • C: variation of fluorescence level of well added with final concentration 3 mM of glutamic acid alone • X: variation of fluorescence level of well added with test compound

T1 sequence (P42261 19-906 isoform P42261-2 limits assumed): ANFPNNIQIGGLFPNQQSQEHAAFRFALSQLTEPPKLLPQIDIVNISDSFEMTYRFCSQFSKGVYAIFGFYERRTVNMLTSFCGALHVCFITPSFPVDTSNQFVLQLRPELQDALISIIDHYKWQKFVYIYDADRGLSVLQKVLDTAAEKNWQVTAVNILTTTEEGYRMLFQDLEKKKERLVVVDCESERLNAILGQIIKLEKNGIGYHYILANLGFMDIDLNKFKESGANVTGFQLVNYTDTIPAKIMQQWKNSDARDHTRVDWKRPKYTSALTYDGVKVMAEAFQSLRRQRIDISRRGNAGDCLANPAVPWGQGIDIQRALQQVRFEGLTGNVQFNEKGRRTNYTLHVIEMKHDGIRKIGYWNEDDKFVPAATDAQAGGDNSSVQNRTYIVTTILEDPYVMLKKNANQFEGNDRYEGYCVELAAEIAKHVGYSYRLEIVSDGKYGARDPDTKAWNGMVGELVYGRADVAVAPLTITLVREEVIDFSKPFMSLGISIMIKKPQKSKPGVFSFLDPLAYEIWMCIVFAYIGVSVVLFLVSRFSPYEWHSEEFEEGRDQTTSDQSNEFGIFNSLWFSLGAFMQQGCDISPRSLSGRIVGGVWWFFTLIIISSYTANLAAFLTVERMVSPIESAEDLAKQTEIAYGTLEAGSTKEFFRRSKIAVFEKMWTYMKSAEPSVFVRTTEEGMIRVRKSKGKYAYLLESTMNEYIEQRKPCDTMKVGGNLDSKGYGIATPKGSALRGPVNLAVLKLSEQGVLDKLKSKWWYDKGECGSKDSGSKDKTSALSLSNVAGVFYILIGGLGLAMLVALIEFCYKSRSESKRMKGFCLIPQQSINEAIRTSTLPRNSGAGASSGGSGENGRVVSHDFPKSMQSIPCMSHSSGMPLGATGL
T1 sequence (Q9Y698 whole entry partner): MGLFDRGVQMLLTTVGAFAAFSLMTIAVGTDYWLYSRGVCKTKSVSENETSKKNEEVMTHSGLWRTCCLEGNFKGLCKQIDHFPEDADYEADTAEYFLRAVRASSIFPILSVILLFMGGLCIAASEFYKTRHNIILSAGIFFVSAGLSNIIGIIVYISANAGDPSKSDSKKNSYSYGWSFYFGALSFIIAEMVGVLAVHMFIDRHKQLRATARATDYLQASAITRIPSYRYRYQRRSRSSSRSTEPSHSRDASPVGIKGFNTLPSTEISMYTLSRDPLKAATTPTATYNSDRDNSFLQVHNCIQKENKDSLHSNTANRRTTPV

activation at 30 µM | hGluR1 flip/30 μM (%) | Structure (SMILES)
102% |  | CN(C(=O)c1ccc(-c2cccn3c(=O)c(Br)c(C(F)(F)F)nc23)cc1F)C1CCOCC1 [Example 84, 4-(3-bromo-4-oxo-2-(trifluoromethyl)-4H-pyrido[1,2-a]pyrimidin-9-yl)-2-fluoro-N-methyl-N-(tetrahydro-2H-pyran-4-yl)benzamide]
109% |  | Cc1c(C(F)(F)F)nc2c(-c3ccc(C(=O)NC4CCOCC4)c(F)c3)cccn2c1=O [Example 85, 2-fluoro-4-(3-methyl-4-oxo-2-(trifluoromethyl)-4H-pyrido[1,2-a]pyrimidin-9-yl)-N-(tetrahydro-2H-pyran-4-yl)benzamide]
103% |  | Cc1c(C(F)(F)F)nc2c(-c3ccc(C(=O)N[C@H]4CCOC4)c(F)c3)cccn2c1=O [Example 86, 2-fluoro-4-(3-methyl-4-oxo-2-(trifluoromethyl)-4H-pyrido[1,2-a]pyrimidin-9-yl)-N-((3S)-tetrahydrofuran-3-yl)benzamide]
101% |  | COC1CCN(C(=O)c2ccc(-c3cccn4c(=O)c(C)c(C(F)(F)F)nc34)cc2F)CC1 [Example 87, 9-(3-fluoro-4-((4-methoxypiperidin-1-yl)carbonyl)phenyl)-3-methyl-2-(trifluoromethyl)-4H-pyrido[1,2-a]pyrimidin-4-one]
90.3% |  | COC1CCN(C(=O)c2ccc(-c3cccn4c(=O)c(Br)c(C(F)(F)F)nc34)cc2F)CC1 [Example 88, 3-bromo-9-(3-fluoro-4-((4-methoxypiperidin-1-yl)carbonyl)phenyl)-2-(trifluoromethyl)-4H-pyrido[1,2-a]pyrimidin-4-one]
82.8% |  | COC1CCN(C(=O)c2ccc(-c3cccn4c(=O)cc(C(F)(F)F)nc34)cc2F)CC1 [Example 89, 9-(3-fluoro-4-((4-methoxypiperidin-1-yl)carbonyl)phenyl)-2-(trifluoromethyl)-4H-pyrido[1,2-a]pyrimidin-4-one]
89.3% |  | CO[C@@H]1CCN(C(=O)c2ccc(-c3cccn4c(=O)c(C)c(C(F)(F)F)nc34)cc2F)C1 [Example 90, 9-(3-fluoro-4-(((3R)-3-methoxypyrrolidin-1-yl)carbonyl)phenyl)-3-methyl-2-(trifluoromethyl)-4H-pyrido[1,2-a]pyrimidin-4-one]
80.9% |  | CO[C@@H]1CCN(C(=O)c2ccc(-c3cccn4c(=O)c(Br)c(C(F)(F)F)nc34)cc2F)C1 [Example 91, 3-bromo-9-(3-fluoro-4-(((3R)-3-methoxypyrrolidin-1-yl)carbonyl)phenyl)-2-(trifluoromethyl)-4H-pyrido[1,2-a]pyrimidin-4-one]
78.9% |  | O=C(N[C@H]1CCCOC1)c1ccc(-c2cccn3c(=O)c(Br)c(C(F)(F)F)nc23)cc1 [Example 92, 4-(3-bromo-4-oxo-2-(trifluoromethyl)-4H-pyrido[1,2-a]pyrimidin-9-yl)-N-((3S)-tetrahydro-2H-pyran-3-yl)benzamide]
88.2% |  | Cc1c(C(F)(F)F)nc2c(-c3ccc(C(=O)N[C@H]4CCCOC4)cc3)cccn2c1=O [Example 93, 4-(3-methyl-4-oxo-2-(trifluoromethyl)-4H-pyrido[1,2-a]pyrimidin-9-yl)-N-((3S)-tetrahydro-2H-pyran-3-yl)benzamide]
94.4% |  | CN(C(=O)c1ccc(-c2cccn3c(=O)c(Br)c(C(F)(F)F)nc23)cc1F)C1CC1 [Example 94, 4-(3-bromo-4-oxo-2-(trifluoromethyl)-4H-pyrido[1,2-a]pyrimidin-9-yl)-N-cyclopropyl-2-fluoro-N-methylbenzamide]
83.2% |  | CCN(C(=O)c1ccc(-c2cccn3c(=O)c(Br)c(C(F)(F)F)nc23)cc1F)C1CC1 [Example 95, 4-(3-bromo-4-oxo-2 (trifluoromethyl)-4H-pyrido[1,2 a]pyrimidin-9-yl)-N-cyclopropyl-N-ethyl-2-fluorobenzamide]
97.2% |  | CN(CC1CC1)C(=O)c1ccc(-c2cccn3c(=O)c(Br)c(C(F)(F)F)nc23)cc1F [Example 96, 4-(3-bromo-4-oxo-2-(trifluoromethyl)-4H-pyrido[1,2-a]pyrimidin-9-yl)-N-(cyclopropylmethyl)-2-fluoro-N-methylbenzamide]
76.9% |  | CN(CCC#N)C(=O)c1ccc(-c2cccn3c(=O)c(Br)c(C(F)(F)F)nc23)cc1 [Example 99, 4-(3-bromo-4-oxo-2-(trifluoromethyl)-4H-pyrido[1,2-a]pyrimidin-9-yl)-N-(2-cyanoethyl)-N-methylbenzamide]
89.2% |  | Cc1c(C(F)(F)F)nc2c(-c3ccc(C(=O)N(C)CCC#N)cc3)cccn2c1=O [Example 100, N-(2-cyanoethyl)-N-methyl-4-(3-methyl-4-oxo-2-(trifluoromethyl)-4H-pyrido[1,2-a]pyrimidin-9-yl)benzamide]
73.8% |  | Cc1c(C(F)(F)F)nc2c(-c3ccc(C(=O)N[C@@H]4CCCOC4)cc3)cccn2c1=O [Example 102, 4-(3-methyl-4-oxo-2-(trifluoromethyl)-4H-pyrido[1,2-a]pyrimidin-9-yl)-N-((3R)-tetrahydro-2H-pyran-3-yl)benzamide]
88.6% |  | O=C(c1ccc(-c2cccn3c(=O)c(Br)c(C(F)(F)F)nc23)cc1)N1CCOC(C(F)F)C1 (centres unmarked) [Example 103, 3-bromo-9-(4-((2-(difluoromethyl)morpholin-4-yl)carbonyl)phenyl)-2-(trifluoromethyl)-4H-pyrido[1,2-a]pyrimidin-4-one]
 | 85.9% | Cc1c(C(F)(F)F)nc2c(-c3ccc(C(=O)N4CCOC(C(F)F)C4)cc3)cccn2c1=O (centres unmarked) [Example 106, 9-(4-((2-(difluoromethyl)morpholin-4-yl)carbonyl)phenyl)-3-methyl-2-(trifluoromethyl)-4H-pyrido[1,2-a]pyrimidin-4-one]
 | 86% | Cc1c(C(F)(F)F)nc2c(-c3ccc(C(=O)N4CCOC(C(F)F)C4)cc3)cccn2c1=O (centres unmarked) [Example 107, 9-(4-((2-(difluoromethyl)morpholin-4-yl)carbonyl)phenyl)-3-methyl-2-(trifluoromethyl)-4H-pyrido[1,2-a]pyrimidin-4-one]
86.8% |  | O=C(N[C@H]1CCCOC1)c1ccc(-c2cccn3c(=O)c(Br)c(C(F)(F)F)nc23)cc1F [Example 110, 4-(3-bromo-4-oxo-2-(trifluoromethyl)-4H-pyrido[1,2-a]pyrimidin-9-yl)-2-fluoro-N-((3S)-tetrahydro-2H-pyran-3-yl)benzamide]
91% |  | O=C(N[C@@H]1CCCOC1)c1ccc(-c2cccn3c(=O)c(Br)c(C(F)(F)F)nc23)cc1F [Example 111, 4-(3-bromo-4-oxo-2-(trifluoromethyl)-4H-pyrido[1,2-a]pyrimidin-9-yl)-2-fluoro-N-((3R)-tetrahydro-2H-pyran-3-yl)benzamide]
 | 78.7% | O=C(c1ccc(-c2cccn3c(=O)c(Br)c(C(F)(F)F)nc23)cc1)N1CCOC(C(F)F)C1 (centres unmarked) [Example 113, 3-bromo-9-(4-((2-(difluoromethyl)morpholin-4-yl)carbonyl)phenyl)-2-(trifluoromethyl)-4H-pyrido[1,2-a]pyrimidin-4-one]
 | 77.2% | O=C(c1ccc(-c2cccn3c(=O)c(Br)c(C(F)(F)F)nc23)cc1)N1CCOC(C(F)F)C1 (centres unmarked) [Example 114, 3-bromo-9-(4-((2-(difluoromethyl)morpholin-4-yl)carbonyl)phenyl)-2-(trifluoromethyl)-4H-pyrido[1,2-a]pyrimidin-4-one]
